Reference: US20050197385A1, “Use of rotigotine for treatment or prevention of dopaminergic neuron loss” (Schwarz Pharma AG, priority 2004, published 2005)

Columns and labels:
[1] = system: Parkinson models; conditions: in vivo; cited from earlier work
[2] = system: dopamine transporter (DAT) in striatum; experiment: Subacute MPTP model, [125I]PE2I dopamine transporter binding in striatum sections; assay type: in vivo; conditions: mouse
Experimental: Groups 1-7 were treated in the following manner: Group 1: Untreated control; Group 2: Control group treated with the excipient solution for Rotigotine and MPTP; Group 3: MPTP treatment; Group 4: MPTP treatment plus Rotigotine 0.3 mg/kg; Group 5: MPTP treatment plus Rotigotine 1.0 mg/kg; Group 6: MPTP treatment plus Rotigotine 3.0 mg/kg; Group 7: Treatment only with Rotigotine (3.0 mg/kg)
For intoxication, mice are administered 80 mg/kg of the neurotoxin 1-methyl-4-phenyl-1,2,3,6-tetrahydro-pyridine (MPTP) (in portions of 20 mg/kg at two-hour intervals, Group 3-6 in FIGS. 1 and 2), leading to a degeneration of the neurons of the substantia nigra of about 50-60% (maximum degeneration in Group 3 in FIGS. 1 and 2). Rotigotine is administered daily in doses of 0.3, 1, or 3 mg/kg each for 7 days in the so-called ‘Slow-Release-Formulation’ (see Working Example 2) (Group 4-6 in FIGS. 1 and 2). A group of MPTP treated animals (Group 3) is given Rotigotine excipient solution (see Working Example 2 without Rotigotine HCl) and serves as reference. […] PE2I ([^125I]-(E)-N(3-iodoprop-2-enyl)-2β-carboxymethyl-3β-(4′-methylphenyl)-nortropane) in phosphate buffer, pH 7.4, in order to mark the quantity of the still present dopamin transporter in striatum and thereby to indicate the quantity of functioning nerve ends.

[3] = system: MPTP-treated (macaque) monkeys; experiment: Progressive MPTP primate model (pilot study); assay type: in vivo
Experimental: In the model used, which reflects the progressive course of the Parkinson's disease on primates, subliminal toxic doses of MPTP were injected in (macaque) monkeys for several days. The Parkinson symptoms developed in the model in a period of about 2 weeks. As soon as a certain degree of damage was reached, Rotigotine was injected daily in a formulation that built up a continuous plasma level for 24 h. The MPTP injections were stopped as soon as the motor activity was reduced by a certain degree (approx. 5 days later). The behavior of the animals was assessed on a daily basis.
At the end of the Rotigotine injection or washout phase, a group each of animals was killed and the condition of the basal ganglion was examined histologically and biochemically.

[4] = system: Parkinson patients; conditions: cited from earlier work
[5] = system: neurons of the substantia nigra; experiment: Acute MPTP model (including apoptosis), FluoroJade stain of degenerating neurons; assay type: in vivo; conditions: mouse; for Number of degenerating neurons: FluoroJade stain
Experimental: About 16 hours before, Rotigotine is administered in doses of 0.3, 1 or 3 mg/kg each as the so-called ‘Slow-Release-Formulation’. […] After 24 hours the animals are killed and the brains fixed. The brain sections are stained with FluoroJade for identification of degenerated cells. The immunohistochemical marking of tyrosine-hydroxylase served the purpose of identification of dopaminergic neurons.

| Compound | Activity in Parkinson models [1] | Survival of the neurons and their nerve ends (dopamine transporter quantity in striatum) ([2]; MPTP 80 mg/kg, Rotigotine 0.3, 1 or 3 mg/kg daily for 7 days, Slow-Release-Formulation) | Dopaminergic innervation of the striatum (dopamine transporter density) ([2]; subacute phase after MPTP) | Content of pre-pro-enkephalin ([3]; basal ganglion, after the treatment and the washout phase) | Motor activity of the animals ([3]; daily Rotigotine injection, during the treatment and in the following washout phase) | Density of the nerve endings in the striatum ([3]; end of Rotigotine injection or washout phase, compared to untreated animals) | Dyskinesias (Parkinson-associated motor function disorders) ([4]; patients with prominent dyskinesias, Metman et al 2001) | UPDRS (Unified Parkinson's Disease Rating Scale) score ([4]; transdermal administration to Parkinson patients, WO 02/089777) | Number of degenerating neurons ([5]; MPTP excipient + Rotigotine 3.0 mg/kg (Rotigotine alone)) | Number of degenerating neurons ([5]; MPTP intoxication + Rotigotine 0.3 mg/kg) | Number of degenerating neurons ([5]; MPTP intoxication + Rotigotine 1.0 mg/kg) | Number of degenerating neurons ([5]; MPTP intoxication + Rotigotine 3.0 mg/kg) | Staining of tyrosine hydroxylase, treated versus untreated animals ([5]; acute MPTP model, 24 hours after MPTP, immunohistochemistry) | Decrease in the number of degenerated neurons after application of Rotigotine ([5]; acute MPTP model, FluoroJade, versus MPTP alone) | Number of degenerating neurons in the mesencephalon ([5]; acute phase after MPTP) |
| --- | --- | --- | --- | --- | --- | --- | --- | --- | --- | --- | --- | --- | --- | --- | --- |
| CCCN(CCc1cccs1)[C@@H]1CCc2c(O)cccc2C1 [(R)-enantiomer] | inactive | – | – | – | – | – | – | – | – | – | – | – | – | – | – |
| CCCN(CCc1cccs1)C1CCc2c(O)cccc2C1 (single isomer, unassigned; (-)) [Rotigotine, (−)-5,6,7,8-Tetrahydro-6-[propyl[2-(2-thienyl)ethyl]amino]-1-naphthol] | – | improves the survival of the neurons and their nerve ends in dependence of the dosage | almost completely preserved or restored | tendency toward normalization | clearly improved | significantly increased | improved | improvement | 3.8 | 66.7 | 76.8 | 34.9 | does not show any difference | about 50% | reduced |
